Here are results for 4 compounds from patent US20240374655A1, “INTESTINAL MICROBIOTA AND GVHD” (Memorial Sloan-Kettering Cancer Center, priority 2014, published 2024).

“Also recorded” adds a separate entry of the source.

A short description of data set [1]: Administration of SCFA to mitigate murine GVHD (preliminary experiments). Conditions: via drinking water (butyrate also via enema); data not shown. Type of data set: in vivo, mice. The method, then: Preliminary experiments were done to test the impact of administration of SCFA on murine GVHD. […] Sodium acetate (150 mM) will be delivered via the drinking water of mice beginning 2 weeks prior to BMT. Mice will then be irradiated and transplanted with continued supplementation of sodium acetate. Outcomes that will be evaluated in mice include GVHD clinical scores, survival, and day 14 and 28 tissue pathology. Kaplan-Meier curves will display the overall survival for the two groups. In addition, the area under the curve (AUC) will summarize the weekly total GVHD score from the time of infusion to week 13 for each mouse. Mice will be euthanized to evaluate for pathological evidence of GVHD, as well as to quantify and characterize large intestinal Tregs and alloreactive effector T cells by flow cytometry on days 14 and 28.

Data set [2] is described as follows: Antibiotic treatment in MHC-matched minor antigen-mismatched allo-HSCT GVHD model (C57BL/6 into 129S1). The format is in vivo. The method, then:
FIGS. 16A-16J Imipenem treatment, compared to aztreonam treatment, suppresses anaerobic commensals and elevates GVHD severity in mice. (A) Flora composition analysis using 16S rRNA sequencing prior to and after treatment with the indicated antibiotics in healthy C57BL/6 mice. Mice were treated with subcutaneous (SC) injections of each antibiotic twice a day for two days (500 mg/kg for pip/tazo and 100 mg/kg for others) and stool samples were collected the following day. Values represent mean±SEM (n=3-4). *, P<0.05; **, P<0.01; ****, P<0.0001. Data are representative of two independent experiments. (B to J) Lethally irradiated 129S1 recipients were transplanted with MHC matched C57BL/6 T-cell depleted bone marrow (TCD-BM) cells and 1×10^6 C57BL/6 T cells. Control mice received TCD-BM only. Recipients were treated with imipenem or aztreonam (100 mg/kg, SC, 3 times a week from day 10 to day 24 following allo-HSCT). (B) Comparison of overall survival, with combined data from three independent experiments (n=15-43). ****, P<0.0001. (C) Mice with GVHD treated with antibiotics were sacrificed on day 21 and GVHD histology scores in target organs were quantified by a blinded pathologist. Data are combined from three independent experiments (n=5-20). *, P<0.05. (D) Stool samples obtained from mice treated with imipenem or aztreonam similarly to those in B were collected on day 21 and analyzed by 16S rRNA gene sequencing, followed by principal coordinate analysis of weighted and normalized UniFrac distances. (E and F) Differential taxonomic abundance between aztreonam treated and imipenem treated recipients was analyzed by (E) linear discriminate analysis coupled with effect size measurements (LEfSe) and (F) by LEfSe projected as a cladogram. […] (I) Stool samples collected from mice with GVHD treated with antibiotics were collected on day 21, and evaluated by metagenomic shotgun sequence analysis, comparison of bacterial species abundance determined by taxonomy. […] (J) Principal component analysis of quantification of sequence reads from KEGG gene orthologs comparing samples from mice treated with aztreonam and imipenem.
(A to G) Lethally irradiated 129S1 recipients were transplanted with C57BL/6 TCD-BM cells with 1×10^6 C57BL/6 T cells. […] (A) Colonic lamina propria-infiltrating leukocytes from recipients were analyzed on day 21 by flow cytometry. […] (C) Lamina propria-infiltrating leukocytes from the colon on day 21 were enriched for CD11b and CD11e simultaneously using a mixture of magnetic beads and IL-23 transcripts were quantified by real time PCR. […] (D) Immunofluorescent staining was used to quantify pSTAT3, CD3, and DAPI positive cells in colonic tissue collected on day 21. […]

The nature of data set [3]: Retrospective cohort of 283 allo-HSCT patients treated for neutropenic fever: GVHD-related mortality by antibiotic type. To be noted: compared to antibiotics with reduced activity against anaerobes (aztreonam, cefepime). The format is in vivo, human. The text has this:
(§1) (A) A retrospective cohort was identified of 283 adult patients who received non-T cell depleted allo-HSCT at our center from 1994 to 2013 and received antibiotics for neutropenic fever. Patients were stratified by exposure to antibiotics with significant activity against anaerobes. Outcomes indicated were depicted by Kaplan-Meier plots and curves compared by the logrank test. (B to G) Six representative clinical cases with time courses depicted of fecal microbiota composition and administration of antibiotic treatments during the course of allo-HSCT. […] (H) Change in abundance of Clostridiales in paired fecal samples from patients undergoing allo-HSCT collected prior to and following treatment with the indicated antibiotics.
In one study, subjects analyzed retrospectively for impact of antibiotics on clinical outcomes consisted of 283 adult patients undergoing all-HSCT at Memorial Sloan Kettering Cancer Center (MSKCC) from 1994 to 2013. […]
GVHD was diagnosed clinically, confirmed pathologically by biopsy whenever possible, and classified according to historical consensus criteria as described previously (see Rowlings P A, Przepiorka D, Klein J P, et al. IBMTR Severity Index for grading acute graft-versus host disease: retrospective comparison with Glucksberg grade. Br J Haematol. 1997). […] Disease risk was determined according to the ASBMT RFI 2014 Disease Classification. […]

Data set [4] has as its system intestinal microbiota (Clostridiales, Enterococcus). In words: Flora composition (16S rRNA sequencing of stool) after antibiotic treatment of healthy mice. Type of data set: in vivo, C57BL/6 mice. The method, then: FIGS. 16A-16J Imipenem treatment, compared to aztreonam treatment, suppresses anaerobic commensals and elevates GVHD severity in mice. (A) Flora composition analysis using 16S rRNA sequencing prior to and after treatment with the indicated antibiotics in healthy C57BL/6 mice. Mice were treated with subcutaneous (SC) injections of each antibiotic twice a day for two days (500 mg/kg for pip/tazo and 100 mg/kg for others) and stool samples were collected the following day. Values represent mean±SEM (n=3-4). *, P<0.05; **, P<0.01; ****, P<0.0001. Data are representative of two independent experiments. (B to J) Lethally irradiated 129S1 recipients were transplanted with MHC matched C57BL/6 T-cell depleted bone marrow (TCD-BM) cells and 1×10^6 C57BL/6 T cells. Control mice received TCD-BM only. Recipients were treated with imipenem or aztreonam (100 mg/kg, SC, 3 times a week from day 10 to day 24 following allo-HSCT). (B) Comparison of overall survival, with combined data from three independent experiments (n=15-43). ****, P<0.0001. (C) Mice with GVHD treated with antibiotics were sacrificed on day 21 and GVHD histology scores in target organs were quantified by a blinded pathologist. Data are combined from three independent experiments (n=5-20). *, P<0.05. (D) Stool samples obtained from mice treated with imipenem or aztreonam similarly to those in B were collected on day 21 and analyzed by 16S rRNA gene sequencing, followed by principal coordinate analysis of weighted and normalized UniFrac distances. (E and F) Differential taxonomic abundance between aztreonam treated and imipenem treated recipients was analyzed by (E) linear discriminate analysis coupled with effect size measurements (LEfSe) and (F) by LEfSe projected as a cladogram. Data are representative from more than five independent experiments in D to F. (G and H) Comparisons of bacterial abundance at the phylogenetic levels of (G) order, and (H) genus are shown. Data are combined from 6 independent experiments (n=32-36). ***, P<0.001. (I) Stool samples collected from mice with GVHD treated with antibiotics were collected on day 21, and evaluated by metagenomic shotgun sequence analysis, comparison of bacterial species abundance determined by taxonomy. Numbers 1 through 6 along the x-axis represent the individual subjects. (J) Principal component analysis of quantification of sequence reads from KEGG gene orthologs comparing samples from mice treated with aztreonam and imipenem.
To further explore causality and mechanisms of the effects of antibiotics with anaerobic activity on GVHD, we turned to experiments in mice. […] Mice were treated by subcutaneous (SC) injections of each antibiotic twice a day for two days (500 mg/kg for pip/tazo and 100 mg/kg for others) and stool samples were collected, followed by 16S rRNA gene amplification and sequence analysis.

In data set [5] the test system is Clostridiales. Description: Change in Clostridiales abundance in paired stool samples of allo-HSCT patients before and after starting antibiotics. Type of data set: in vivo, human. To be noted: before vs after starting the antibiotic; compared to aztreonam.
Description: as §1
For each stool specimen, DNA was purified using a phenol-chloroform extraction technique with mechanical disruption (bead-beating) based on a previously described protocol (60). Samples were analyzed using the 454 GS FLX Titanium platform to sequence the V1-V3 region of the bacterial 16S rRNA gene or were alternatively analyzed using the Illumina MiSeq platform to sequence the V4-V5 region of the 16S rRNA gene. Sequence data were compiled and processed using mothur version 1.34 (61), screened and filtered for quality (62). Operational taxonomic units (OTUs) were classified to the species level (63) using a modified form of the Greengenes reference database (64). Principal component analysis was performed upon a weighted and normalized Unifrac (65) distance matrix of OTU abundance in R software. Data from this study has been stored in the NCBI Sequence Read Archive (see url: www.ncbi.nlm.nih.gov/sra).
HSCT patients were on intestinal bacterial composition. In 2009, our center began to prospectively collect weekly stool samples from patients undergoing allo-HSCT. From this specimen bank, we identified paired stool samples collected from patients prior to as well as following initiation of specific antibiotics during the course of allo-HSCT. […]

For data set [6] the following is noted: metronidazole added to ciprofloxacin; cited from earlier work.
Setting [7] is: 100 mg/kg SC twice a day for two days.

Take `CC(=O)O` [acetate]: the “Benefit on murine GVHD” value in data set [1] is given as “notable benefit”.

Consider `C[C@@H](O)[C@H]1C(=O)N2C(C(=O)O)=C(SCCN=CN)C[C@H]12` [imipenem, imipenem-cilastatin], for which, in data set [2] (100 mg/kg SC 3 times a week from day 10, compared to aztreonam, within 2 weeks of starting treatment), the “Mortality / overall survival” value was “significantly increased mortality; also recorded: aggravated mortality”. Further, in data set [2] (mouse, in vivo), the “Bacteria past the colonic epithelial barrier” value is listed as “dissemination of bacteria past the colonic epithelial barrier”; the “GVHD pathology in skin, liver and small intestine” value was “no significant differences”. Further, the GVHD-related mortality result in data set [3] is given as “increased GVHD-related mortality”.

Turning to `Cc1ncc([N+](=O)[O-])n1CCO` [metronidazole], in data set [4] (setting [7]), the “Abundance of Clostridiales in stool” value is “significantly reduced” and the “Abundance of Enterococcus in stool” value is recorded as “increased”. The “Change in Clostridiales abundance in stool of patients” value in data set [5] is recorded as “significantly lower abundances of Clostridiales”. Also, the “Acute GVHD” value in data set [6] is “significant reduction in acute GVHD”.

As for piperacillin-tazobactam [pip/tazo], the “Amplifiable bacterial DNA in stool” value in data set [4] (500 mg/kg SC twice a day for two days) was “no amplifiable bacterial DNA”. In data set [5], the “Change in Clostridiales abundance in stool of patients” value is recorded as “significantly lower abundances of Clostridiales; also recorded: more severe loss”. For the same compound, the GVHD-related mortality result in data set [3] is recorded as “increased GVHD-related mortality”.
